Reference: paper PMC9727977, “Pharmacokinetics and pharmacodynamics of bioactive compounds in Penyanqing preparation in THP-1 inflammatory cells induced by Lipopolysaccharide” (BMC Complementary Medicine and Therapies, 2022)
Like-named read-outs stand apart in the source and are kept apart here.

Tests used:
[1] = Pharmacokinetics of six compounds in rat plasma after oral administration of PYQ (HPLC-MS/MS); assay type: in vivo, Sprague–Dawley rats; conditions: for CL/F: n = 6, read-out: CLz/F (converted); for Vd/F: n = 6, read-out: Vz/F; for AUC(0-inf) / AUC(0-t) / AUC(0-∞): non-compartmental; for MRT: read-out: mean residence time (MRT)
Procedure: Animal experiments referred to our previous manuscript. Female Sprague–Dawley rats (n = 10), weighing 200 ± 20 g, were purchased from the Experimental Animal Center of Southern Medical University (Guangzhou, China). These rats were kept adaptively for one week before the experiment, with a temperature of 23 ± 2 ℃, humidity of 40 ± 5%, 12 h light/dark cycle, and random-fed with water and food available. The rats were fasted overnight before administration.
In our previous study, three different doses (5, 10, and 20 mL/kg/day) of PYQ were used to explore the pharmacodynamic effects of it. According to the clinical dose, the PYQ was orally administered to rats at a dose of 8 mL/kg in this experiment. The plasma of 500 µL was obtained via the retinal venous plexus at 0.083, 0.25, 0.5, 0.75, 1, 2, 4, 8, 12 and 24 h after gavage administration. Then all samples were centrifuged at 4 ℃ for 5 min at 8,000 rpm, and were stored at -80 ℃ in refrigerator until further analysis.
For the pharmacokinetic study of PRO, PE, AST, FE, and CH, 100 µL plasma sample was mixed with 10 µL internal standard (IS, 2 µg/mL naringin), and 700 µL methanol was added for protein sedimentation. The mixture was vortexed for 6 min and centrifuged at 13, 000 rpm for 15 min at 4 ℃. Next, the supernatant was dried in a vacuum drying oven and vortexed with 100 µL of 50% methanol for 6 min, and then the mixture was centrifuged at 13, 000 rpm for 30 min at 4 ℃, and the supernatant was filtered by 0.22 µM filter membrane for HPLC–MS/MS analysis.
For the pharmacokinetic study of SAB, 100 µL plasma was mixed with 10 µL IS (2 µg/mL naringin) and then acidified by mixing with 25 µL of 20% hydrochloric acid. After addition of 1 mL of ethyl acetate, the mixture was vortexed for 6 min and centrifuged at 13,000 rpm for 15 min. The organic layer was transferred to an Eppendorf tube and dried in a vacuum drying oven. The residue was dissolved in 100 µL methanol. After centrifugation at 13,000 rpm for 30 min, the supernatant was filtered by 0.22 µM filter membrane for HPLC–MS/MS analysis.
In this study, the negative ESI multiple reaction monitoring (MRM) mode of AB Sciex API-4000 LC–MS/MS Systems was used to measure SAB, PRO, PE, AST, FE, and CH in rat plasma, respectively. The following setups of the analyzers were used: the temperatures were all 500 ℃; GS1, 55 psi; GS2, 55 psi; curtain gas, 10 psi.
For the chromatographic analysis of PRO, PE, AST, FE, and CH, the chromatographic column used was Agilent Poroshell 120 EC-C18 (100 mm × 3.0 mm, 2.7 µm), and the column temperature was maintained at 25 ℃. The mobile phase was consisted of A (methanol) and B (0.2% aqueous formic acid), and the flow rate was 0.4 mL/min. The gradient elution was carried out as follows: 10% A at 0 ~ 1 min, 10% A-95% A at 1 ~ 2 min, 95% A at 2 ~ 5 min, 95% A-10% A at 5 ~ 5.1 min, 10% A at 5.1 ~ 6 min. 5 µL sample was injected into the system for analysis.
For the chromatographic analysis of SAB, the chromatographic column used was ZORBAX SB-C18 (100 mm × 2.1 mm, 3.5 µm), and the column temperature was maintained at 25 ℃. The mobile phase was consisted of A (methanol) and B (0.2% aqueous formic acid), and the flow rate was 0.4 mL/min. The gradient elution was carried out as follows: 30% A at 0 ~ 0.5 min, 30% A-90% A at 0.5 ~ 1 min, 90% A at 1 ~ 4.5 min, 90% A-30% A at 4.5 ~ 4.6 min, 30% A at 4.6 ~ 6 min. 5 µL sample was injected into the system for analysis.
The pharmacokinetic parameters were calculated by non-compartmental model of the DAS 2.0 software package. The data were presented as mean ± standard deviation (SD). Statistical calculations were performed using SPSS statistical software, and a value of p < 0.05 was denoted statistically significant difference.

[2] = Stability of the analytes in rat plasma QC samples under different storage conditions; assay type: in vitro ADME
Procedure: QC samples were […], 50, 125, 400 ng/mL for FE, 20, 100, 400 ng/mL for PRO, 100, 200, 500 ng/mL for CH, 100, 200, 500 ng/mL for PE, 200, 400, 800 ng/mL for SAB respectively. All the stock solutions, working solutions and QC samples were stored at 4 ℃ until use. […] The stability of all QC samples was determined by the freshly calibration curve.

[3] = female, Sprague-Dawley, po, PYQ orally 8 mL/kg, mean ± SD, n = 6
[4] = female, Sprague-Dawley, po, PYQ orally 8 mL/kg, mean ± SD
[5] = female, Sprague-Dawley, po, PYQ orally 8 mL/kg, mean ± SD, n = 6, read-out: Cmax
[6] = female, Sprague-Dawley, po, PYQ orally 8 mL/kg, mean ± SD, n = 6, read-out: tmax
[7] = female, Sprague-Dawley, po, PYQ orally 8 mL/kg, mean ± SD, n = 6, read-out: AUC(0-t)
[8] = female, Sprague-Dawley, po, after PYQ administration
[9] = high QC level, nominal ng/mL: AST 500, FE 400, PRO 400, CH 500, PE 500, SAB 800, n = 6
[10] = low QC level, nominal ng/mL: AST 100, FE 50, PRO 20, CH 100, PE 100, SAB 200, n = 6
[11] = middle QC level, nominal ng/mL: AST 200, FE 125, PRO 100, CH 200, PE 200, SAB 400, n = 6
[12] = PYQ orally 8 mL/kg, mean ± SD, n = 6

Compound	half-life [1, 3] [min]	CL/F [1, 4] [mL/min/kg]	Cmax [1, 5] [ng/mL]	Vd/F [1, 4] [L/kg]	Tmax [1, 6] [min]	AUC(0-inf) [1, 3] [ng·h/mL]	AUC(0-t) [1, 7] [ng·h/mL]	MRT [1, 8] [h]	In 56 ℃ for 1 h measured value [2, 9]	Room temperature 24 h measured value [2, 9]	Three freeze-thaw cycles measured value [2, 9]	In 56 ℃ for 1 h measured value [2, 10]	Room temperature 24 h measured value [2, 10]	Three freeze-thaw cycles measured value [2, 10]	In 56 ℃ for 1 h measured value [2, 11]	Room temperature 24 h measured value [2, 11]	Three freeze-thaw cycles measured value [2, 11]	Cmax [1, 12] [ng/mL]	AUC(0-∞) [1, 12] [mg·h/L]	Tmax [1, 12] [min]	further results
C[C@@H]1O[C@@H](O[C@H]2C(=O)c3c(O)cc(O)cc3O[C@@H]2c2ccc(O)c(O)c2)[C@H](O)[C@H](O)[C@H]1O [AST, astilbin]	205 ± 20.4	159	2270 ± 350	45.4 ± 6.31	15	2090 ± 200	2080 ± 200	≤ 3	495.21 ± 8.43	498.07 ± 3.95	497.15 ± 6.61	98.46 ± 2.77	99.68 ± 2.31	97.89 ± 4.06	194.85 ± 6.53	199.01 ± 3.99	193.37 ± 7.61				
O=C(/C=C/c1ccc(O)c(O)c1)O[C@@H]1C[C@](O)(C(=O)O)C[C@@H](O)[C@H]1O [CH, chlorogenic acid]	112 ± 12.6	356		57.2 ± 7.48			920 ± 60	≤ 3	489.60 ± 8.91	499.00 ± 6.02	485.90 ± 9.73	97.22 ± 3.31	99.91 ± 2.94	98.55 ± 2.93	195.56 ± 7.88	200.03 ± 9.56	191.77 ± 8.91	1370 ± 60	0.94 ± 0.09		
COc1cc(/C=C/C(=O)O)ccc1O [FE, ferulic acid]	54 ± 1.2	230	1200 ± 150	17.9 ± 3.28		1480 ± 240	1430 ± 230	≤ 3	399.13 ± 3.26	403.59 ± 7.84	400.59 ± 6.95	48.33 ± 2.76	49.14 ± 2.35	49.41 ± 1.85	123.42 ± 1.76	122.72 ± 2.65	124.36 ± 2.46			15 ± 0	
C[C@@]12C[C@@]3(O)O[C@@H](O1)[C@]1(COC(=O)c4ccccc4)[C@H]3C[C@@]12O[C@@H]1O[C@H](CO)[C@@H](O)[C@H](O)[C@H]1O [PE, paeoniflorin]		153	2040 ± 590	31.3 ± 4.08	15	2220 ± 310	2210 ± 310	≤ 3	495.87 ± 6.50	499.23 ± 2.58	492.85 ± 7.60	95.32 ± 1.06	99.44 ± 2.43	99.68 ± 2.83	196.25 ± 4.08	199.64 ± 2.59	197.55 ± 3.60				t1/2 [1, 12]: 2.37 ± 0.20 h
O=Cc1ccc(O)c(O)c1 [PRO, protocatechualdehyde]	55.8 ± 3.6	310	1430 ± 220	24.9 ± 1.96		1080 ± 70	1050 ± 60	≤ 3	394.26 ± 8.01	398.27 ± 4.21	395.66 ± 7.14	19.88 ± 0.43	20.81 ± 0.85	20.62 ± 1.06	98.21 ± 2.33	100.34 ± 1.48	97.77 ± 2.49				Tmax ([1]; female, Sprague-Dawley, in vivo, po, PYQ orally 8 mL/kg, mean ± SD, n = 6, read-out: tmax): 15 min
salvianolic acid B [SAB]									791.11 ± 5.98	792.27 ± 3.94	790.71 ± 3.52	196.22 ± 3.40	208.88 ± 8.46	194.10 ± 8.56	395.20 ± 10.70	391.06 ± 6.16	388.99 ± 6.75	1590 ± 330	3.70 ± 0.46	17.4 ± 6	CLz/F [1, 12]: 5.48 ± 0.68 L/h/kg; Vz/F [1, 12]: 59.83 ± 25.48 L/kg; t1/2 [1, 12]: 7.60 ± 3.34 h; AUC(0-t) [1, 12]: 3400 ± 450 ng·h/mL; mean residence time (MRT) ([1]; after PYQ administration): 5.67 ± 0.66 h
